# Entries after “also recorded” stand apart in the source; their conditions may differ. Where two headings read alike, the source gives them in different places.
# Legend:
# [1] = biological target: purified L. tarentolae tubulin (Leishmania tarentolae, UniProt A0A640KCM0+A0A640KQN0); experiment: Chemical cross-linking competition with SW223022 probe; format: binding; settings: 100-fold excess of competitor
# [2] = tested on: L. amazonensis promastigotes and amastigotes; experiment: Tubulin intensity by confocal immunofluorescence microscopy; format: cell-based, Leishmania amazonensis; settings: 24 h at EC50^72 h
# Experimental: (§1) Promastigotes or amastigotes were treated with the indicated compound concentrations and allowed to adhere to poly-L-lysine coated plates. All cells were fixed with 4% paraformaldehyde and permeabilized/blocked with 0.01% Triton X-100 and 2% BSA in PBS. Promastigotes and amastigotes were incubated with mouse anti-gp46 or anti-p8, respectively at 1:50 or 1:1000 and rat anti-alpha-tubulin antibody at 1:1000. Samples were then probed with A568 anti-mouse and […] secondary antibodies (Molecular Probes). DNA was labeled with Hoescht. Samples were visualized on a Zeiss LSM 880 Inverted confocal Airyscan microscope at 63×; full Z-thicknesses through parasites were obtained. […] For microscopic analysis of mitotic arrest, at least 200 parasites were analyzed per condition per experiment after 48 hrs incubation at compounds' EC50, and the average plus standard error for three experiments was calculated. Representative images were selected from the maximal intensity projections and linearly processed in Adobe Photoshop CS6.
# One reason why MMV676477 might affect parasite cell division is that, like paclitaxel, it might affect microtubule polymerization, either directly or indirectly. The degree to which MMV676477 affected microtubules polymerization in cells was examined. […] Centrifugation of these extracts allowed separation of insoluble polymeric (pellet) and soluble dimeric (supernatant) tubulin. […] The intensity of α-tubulin staining was examined by normalizing it to the intensity of a membrane protein (gp46 for promastigotes in FIG. 4D; p8 for amastigotes in FIG. 4E).
# [3] = tested on: L. amazonensis promastigotes and amastigotes; experiment: Microscopic analysis of cell division; format: cell-based, Leishmania amazonensis; settings: 48 h at EC50^72 h
# Experimental: as §1
# The molecular target of MMV676477 was investigated.
# [4] = tested on: L. amazonensis axenic amastigotes; experiment: alamarBlue viability / concentration-response assay, axenic amastigotes; format: cell-based, Leishmania amazonensis
# Experimental: (§2) Leishmania amazonensis axenic amastigotes (100 μL, 2×10^6 cells/mL) were added to 96-multiwell plates containing 100 μL of amastigote culture medium with an appropriate compound dilution series. 0.1% DMSO (no drug) served as a positive control (100%), and 5 μM amphotericin B served as a negative growth control (0%). Only internal wells were used to minimize edge effects from evaporation. Axenic amastigotes were incubated at 32° C. with a compound/drug for 72 h prior to measurement. Similarly, the cytotoxicity of each compound was determined against RAW 264.7 cells and HepG2 cell lines, following 72 h incubation at 37° C. (promastigotes at 26° C.).
# (§3) 10% alamarBlue® (Thermo Fisher Scientific) was used to measure the growth of both parasite and mammalian cells. Conversion from a blue oxidized state to a pink reduced state was assessed visually at 6 hr. The fluorescence signal was measured with a BioTek Synergy H1 plate reader (530 nm excitation, 570 nm emission). For bioluminescence assays using L. amazonensisluc, relative luminescence units (RLU) were measured using Britelite Plus (PerkinElmer, USA). Luminescence produced by this luciferase reaction is proportional to the amount of luciferase-expressing, viable L. amazonensisluc. Following five-minute incubation at room temperature, the luminescence was measured with a BioTek Synergy H1 plate reader.
# All experiments were conducted as three technical triplicates on the same plate, with at least three independent biological repeats of each plate performed. For all assays, percent growth was expressed as a proportion of the untreated (positive) control (i.e. 100%) and plotted against drug/compound concentration. The concentration was then log10 transformed and EC50 values were determined using nonlinear regression (sigmoidal dose-response/variable slope equation) in GraphPad Prism v5.0 (GraphPad Software, Inc., San Diego, CA).
# To identify antileishmanial compounds, a microplate-based alamarBlue® assay was used to quickly triage the 400 drug-like compounds available in the MMV Pathogen Box collection. […] A three-step process was used to screen the Pathogen Box: 1) identify hits against axenic amastigotes, 2) confirm the inhibitory concentrations of these hits against axenic amastigotes, 3) evaluate hits for potency against intracellular parasites using fluorescence and bioluminescence-based intracellular assays. The MMV Pathogen Box resource was tested at two concentrations (5 μM and 1 μM, 72 h endpoint) on axenic amastigotes.
# Hits were defined as compounds that, at a concentration of 1 μM, decreased the relative fluorescence intensity signal to ≤70% of that produced by parasites incubated in vehicle (0.06% DMSO) only (FIG. 9).
# [5] = tested on: intracellular L. amazonensis amastigotes; experiment: Intramacrophage bioluminescence assay with luciferase-expressing L. amazonensis; format: cell-based, Leishmania amazonensis
# Experimental: Intracellular EC50s were estimated with L. amazonensisluc parasites. Briefly, RAW 264.7 cells or BM primary Mϕs were starved overnight, then infected with metacyclic promastigotes at a Multiplicity of Infection (MOI) of 15 and incubated for another 24 h at 37° C. The plates containing infected RAW 264.7 cells/BM primary M4s were washed five times with serum-free DMEM. Serially diluted compounds were added, and plates were incubated at 37° C. for 72 hrs. Bioluminescence signal was measured as described above.
# RAW 264.7 cells were used to perform a bioluminescence assay with transgenic luciferase-expressing L. amazonensis (FIG. 1C).
# [6] = tested on: intracellular L. amazonensis amastigotes; experiment: Intracellular washout assay (LD50); format: cell-based, Leishmania amazonensis
# Experimental: Intracellular LD50s were measured. Briefly, RAW 264.7 cells were seeded to 96-multiwell plates at a density of 2×10^5 cells/mL (200 μL) and starved overnight at 37° C. The cells were infected with metacyclic promastigotes at a Multiplicity of Infection (MOI) of 15 and incubated for another 24 h at 37° C. The plates containing infected RAW 264.7 cells/BM primary M #s were washed five times with serum-free DMEM. Serially diluted compounds were added, and plates were incubated at 37° C. for 72 hrs. Wells were washed five times with DMEM, and the RAW 264.7 cells were lysed with 100 μL of 2 mg/mL saponin in DMEM for 5 min at room temperature, and further lysis was stopped with 100% FBS. After centrifugation, 200 μL acidic promastigotes media was replaced, plates were incubated at 26° C. for 96 h. Fluorescence intensity (alamarBlue®) was measured as described above.
# All routine in vitro quantification of antileishmanial drug potency is quantification of “cytostatic” potency. […] Therefore, the cytocidal action of MMV676477 was quantified by obtaining an LD50 at 72 h (a Lethal Dose that kills 50% of the bulk population of the parasites relative to untreated control) and compared it to the known cytocidal drug amphotericin. An intracellular washout assay was employed. […] The ratio of LD50:EC50 was calculated for MMV676477 and amphotericin. Lower ratios indicate that the LD50 is similar to the EC50 value, meaning that the estimated EC50 values represent killing of the parasites rather than simple growth inhibition.
# Cytotoxicity, alamarBlue = format: cell-based; settings: mouse, RAW 264.7 macrophage cells, read-out: CC50^72 h cytotoxicity (macrophage / mammalian cells)
# Experimental: as §2
# as §3, with “reader. […]” for “reader.”
# [7] = tested on: blood-stage P. falciparum (3D7 strain); experiment: Malaria SYBR green I fluorescence (MSF) assay; format: cell-based, Plasmodium falciparum; settings: 3D7 strain
# Experimental: For other parasites, L. donovani, strain MHOM/SD/62/1S-C12D, was grown as previously described. Plasmodium falciparum parasites of the 3D7 strain were cultured in RPMI 1640 medium supplemented with 37.5 mM HEPES, 10 mM D-glucose, 2 mM L-glutamine, 100 μM hypoxanthine, 25 μg/mL gentamicin, 4% (v/v) human serum and 0.25% (v/v) Albumax II, at a 2% haematocrit in an atmosphere of 1% 02, 3% CO2 and 96% N2. Staging and parasitemia of the in vitro culture were assessed by light microscopy of Giemsa-stained thin blood smears.
# Compounds were tested against the blood-stage Trypanosoma brucei (48 hr endpoint) and intra-erythrocytic asexual stages Plasmodium falciparum (3D7) using CellTiter-Glo® luminescent and Malaria SYBR green I fluorescence (MSF) assays, respectively. Similar methodology will be used for future experiments.
# MMV676477 was tested against several other parasites: the axenic amastigotes of Leishmania donovani and Leishmania tarentolae, blood-stage Plasmodium falciparum, and Trypanosoma brucei. The compound's activity was measured using alamarBlue®, Malaria SYBR green I fluorescence (MSF) and CellTiter-Glo® luminescent assays. […] In addition, MMV676477 has also been recently reported as having potent activity against Neospora caninum, Cryptosporidium parvum, Toxoplasma gondii, and Entamoeba histolytica.
# [8] = Leishmania amazonensis, 72 h, axenic amastigotes; read-out: EC50^72 h against L. amazonensis axenic amastigotes
# [9] = Pathogen Box screen, 1 μM, 72 h
structure (smiles),measurement,setting,value
CSc1ccccc1C(=O)Oc1cc(C)nc(-n2nc(C)cc2N)n1 [SW10],competition with SW223022 probe (fluorescent tubulin band),[1],No apparent competition
"CCc1c(C)nc(-n2nc(C)cc2N)[nH]c1=O [SW223075, 2-(5-amino-3-methyl-1H-pyrazol-1-yl)-5-ethyl-6-methylpyrimidin-4(3H)-one]",tubulin intensity over control (DMSO-treated),[2],did not increase tubulin intensity
same,percentage of L. amazonensis undergoing cell division,[3],no effect on cell division
same,EC50,[4]; [8],290 nM
CCCCCCCCCCCCCCCCOP(=O)([O-])OCC[N+](C)(C)C [miltefosine],tubulin intensity over control (DMSO-treated),[2],did not increase tubulin intensity
same,percentage of L. amazonensis undergoing cell division,[3],did not affect L. amazonensis cell division
CC(=O)OC[C@H]1O[C@@H]([S-])[C@H](OC(C)=O)[C@@H](OC(C)=O)[C@@H]1OC(C)=O.CCP(CC)CC.[Au+] [auranofin],relative fluorescence intensity signal vs vehicle (hit definition),[4]; [9],hits
"CCc1c(C)nc(-n2nc(C)cc2NC(C)=O)[nH]c1=O [SW223023, N-(1-(5-Ethyl-4-methyl-6-oxo-1,6-dihydropyrimidin-2-yl)-3-methyl-1H-pyrazol-5-yl) acetamide]",competition with SW223022 probe (fluorescent tubulin band),[1],No apparent competition
CC(=O)Oc1ccccc1C(=O)Nc1ncc([N+](=O)[O-])s1 [nitazoxanide],relative fluorescence intensity signal vs vehicle (hit definition),[4]; [9],hits
C[C@]1(COc2ccc(N3CCC(Oc4ccc(OC(F)(F)F)cc4)CC3)cc2)Cn2cc([N+](=O)[O-])nc2O1 [delamanid],relative fluorescence intensity signal vs vehicle (hit definition),[4]; [9],hits
"CCc1c(C)nc(-n2nc(C)cc2NC(=O)Nc2ccc(OC)cc2)[nH]c1=O [SW223102, 1-(1-(5-Ethyl-4-methyl-6-oxo-1,6-dihydropyrimidin-2-yl)-3-methyl-1H-pyrazol-5-yl)-3-(4-methoxyphenyl)urea]",EC50,[4]; [8],2400 nM
same,competition with SW223022 probe (fluorescent tubulin band),[1],less-pronounced dimming
CC(C)(C)[C@H]1CC[C@H](CC2=C(O)C(=O)c3ccccc3C2=O)CC1 [buparvaquone],relative fluorescence intensity signal vs vehicle (hit definition),[4]; [9],hits
"C#CCOc1ccc(C(=O)c2ccc(C(=O)Nc3cc(C)nn3-c3nc(C)c(CC)c(=O)[nH]3)cc2)cc1 [SW223022, N-(1-(5-Ethyl-4-methyl-6-oxo-1,6-dihydropyrimidin-2-yl)-3-methyl-1H-pyrazol-5-yl)-4-(4-(prop-2-yn-1-yloxy)benzoyl)benzamide]",EC50,"[4]; 72 h, axenic amastigotes; read-out: EC50^72 h against L. amazonensis axenic amastigotes",156 nM
same,EC50,[4]; [8],160 nM
C[C@@H]1[C@H](O)[C@@H](C)/C=C/C=C/C=C/C=C/C=C/C=C/C=C/[C@H](O[C@@H]2O[C@H](C)[C@@H](O)[C@H](N)[C@@H]2O)C[C@@H]2O[C@](O)(C[C@@H](O)C[C@@H](O)[C@H](O)CC[C@@H](O)C[C@@H](O)CC(=O)O[C@H]1C)C[C@H](O)[C@H]2C(=O)O [amphotericin B],EC50,"[5]; Leishmania amazonensis, RAW264.7, 72 h, read-out: EC50^72 h against intracellular L. amazonensis amastigotes",77 nM
same,LD50/EC50 ratio,[6]; intracellular amastigotes,1
same,LD50 72 h,"[6]; intracellular washout, 72 h",82 nM
same,EC50,"[4]; Leishmania amazonensis; 72 h, axenic amastigotes; read-out: EC50^72 h against L. amazonensis axenic amastigotes",53 nM
"CCc1c(C)nc(-n2nc(C)cc2NC(=O)c2ccc(F)c(Cl)c2)[nH]c1=O [SW223041, 3-Chloro-N-(1-(5-ethyl-4-methyl-6-oxo-1,6-dihydropyrimidin-2-yl)-3-methyl-1H-pyrazol-5-yl)-4-fluorobenzamide]",potency against L. amazonensis intracellular amastigotes relative to MMV676477,[5],3-4 fold
same,CC50 at 72 h,"Cytotoxicity, alamarBlue",2400 nM
same,potency against blood-stage P. falciparum relative to MMV676477,[7],3-4 fold
same,EC50,[4]; [8],20 nM
same,improvement of potency against L. amazonensis compared to MMV676477,[4]; fold vs MMV676477,four to five-fold improved potency; also recorded: about four-fold improved activity
same,competition with SW223022 probe (fluorescent tubulin band),[1],almost completely absent

# Reference: patent US20240139190A1, “NOVEL ANTIPARASITIC COMPOUNDS AND METHODS” (The Board of Regents of The University of Texas System, priority 2019, published 2024)
